In ChEMBL document CHEMBL4665662, “Designed P-glycoprotein inhibitors with triazol-tetrahydroisoquinoline-core increase doxorubicin-induced mortality in multidrug resistant K562/A02 cells” (Bioorg Med Chem, 2019):
The source made the active and inactive calls. No cut-off for these calls is given here.

Tests used:
K562/A02 [1] = experiment: (§1) Reversal of P-gp mediated multidrug resistance in human K562/A02 cells overexpressing P-gp assessed as fold reduction in doxorubicin IC50 at 5 uM after 48 hrs by MTT assay relative to control; assay type: cell-based
K562/A02 [2] = experiment: Cytotoxicity against human K562/A02 cells overexpressing P-gp assessed as cell growth inhibition after 48 hrs by MTT assay; assay type: cell-based; details: K562/A02, 48 h
K562 = experiment: Cytotoxicity against human K562 cells assessed as cell growth inhibition after 48 hrs by MTT assay; assay type: cell-based; details: K562, 48 h
K562/A02 [3] = experiment: as §1, with “uM preincubated for 24 hrs followed by compound washout and 24 hrs later incubated with doxorubicin and measured” for “uM”; assay type: cell-based
K562/A02 [4] = experiment: as §1, with “uM preincubated for 24 hrs followed by compound washout and 12 hrs later incubated with doxorubicin and measured” for “uM”; assay type: cell-based
K562/A02 [5] = experiment: Reversal of P-gp mediated multidrug resistance in human K562/A02 cells overexpressing P-gp assessed as fold reduction in doxorubicin IC50 at 5 uM preincubated for 24 hrs followed by compound washout and 6 hrs later incubated with doxorubicin and measured after 48 hrs by MTT assay relative to control; assay type: cell-based
K562/A02 [6] = experiment: (§2) Reversal of P-gp mediated multidrug resistance in human K562/A02 cells overexpressing P-gp assessed as fold reduction in doxorubicin IC50 at 5 uM preincubated for 24 hrs followed by compound washout and later incubated with doxorubicin and measured after 48 hrs by MTT assay relative to control; assay type: cell-based
K562/A02 [7] = experiment: Inhibition of P-gp overexpressed in human K562/A02 cells assessed as increase in doxorubicin accumulation preincubated for 60 mins followed by doxorubicin addition and measured after 90 mins by fluorescence spectrophotometry analysis; assay type: cell-based; details: dose microM 0.5-5, time 60.0 min
K562/A02 [8] = experiment: Inhibition of P-gp overexpressed in human K562/A02 cells assessed as increase doxorubicin accumulation at 5 uM preincubated for 60 mins followed by doxorubicin addition and measured after 90 mins by fluorescence spectrophotometry analysis; assay type: cell-based
K562/A02 [9] = experiment: Effect on P-gp expression in human K562/A02 cells overexpressing P-gp at 0.5 to 5 uM after 72 hrs by Western blot analysis; assay type: functional, cell-based; details: dose microM 0.5-5, time 72.0 hrs
K562/A02 [10] = experiment: Reversal of P-gp mediated multidrug resistance in human K562/A02 cells overexpressing P-gp assessed as inhibition of Rh123 efflux by measuring remaining mean fluorescence intensity at 2 uM pretreated with Rh123 for 60 mins followed by incubation with compound for 90 mins by FACSCalibur flow cytometry analysis; assay type: cell-based
[11] = Reversal of P-gp mediated multidrug resistance in human K562/A02 cells overexpressing P-gp assessed as potentiation of doxorubicin-induced mortality by measuring reduction in doxorubicin IC50 measured after 48 hrs by MTT assay; assay type: cell-based; details: K562/A02, 48 h
K562/A02 [12] = experiment: Inhibition of P-gp overexpressed in human K562/A02 cells assessed as increase in doxorubicin accumulation at 0.1 uM preincubated for 60 mins followed by doxorubicin addition and measured after 90 mins by fluorescence spectrophotometry analysis; assay type: cell-based
K562/A02 [13] = experiment: Reversal of P-gp mediated multidrug resistance in human K562/A02 cells overexpressing P-gp assessed as potentiation of doxorubicin-induced mortality by measuring reduction in doxorubicin IC50 at 10 nM measured after 48 hrs by MTT assay; assay type: cell-based
K562/A02 [14] = experiment: as §2, with “time duration of action for reversal of doxorubicin-induced cytotoxicity” for “fold reduction in doxorubicin IC50”, “assay” for “assay relative to control”; assay type: cell-based

Row | SMILES | Ratio IC50 (K562/A02 [1]) | IC50 (K562/A02 [2]) [µM] | IC50 (K562; read-out: IC50) [µM] | further results
1 | COc1cc2c(cc1OC)CN(CCn1cc(CNc3ccccc3NC(=O)c3sccc3C)nn1)CC2 | 3.09 | > 100 | – | –
2 | COc1cc2c(cc1OC)CN(CCn1cc(CNc3ccccc3NC(=O)c3cccnc3Cl)nn1)CC2 | 1.28 | > 100 | – | –
3 | COc1cc2c(cc1OC)CN(CCc1ccc(-n3cc(CNc4ccccc4NC(=O)c4ccccn4)nn3)cc1)CC2 | 11.8 | 52.1 | 45.1 | –
4 | COc1cc2c(cc1OC)CN(CCn1cc(CNc3ccccc3NC(=O)c3ccc(C)s3)nn1)CC2 | 2.86 | > 100 | – | –
5 | COc1cc2c(cc1OC)CN(CCn1cc(CNc3ccccc3NC(=O)c3cccs3)nn1)CC2 | 2.03 | > 100 | – | –
6 | COc1cc2c(cc1OC)CN(CCn1cc(CNc3ccccc3NC(=O)c3ccc(Cl)s3)nn1)CC2 | 3.38 | > 100 | – | –
7 | COc1cc2c(cc1OC)CN(CCc1ccc(NC(=O)c3cc(OC)c(OC)cc3NC(=O)c3cnc4ccccc4c3)cc1)CC2 | 42.3 | 30.1 | 18.4 | Ratio IC50 (K562/A02 [3]): 2.4; Ratio IC50 (K562/A02 [4]): 4.12; Ratio IC50 (K562/A02 [5]): 10.2; Ratio IC50 (K562/A02 [6]): 19.2; inhibition (K562/A02 [7]): Dose-dependent effect
8 | COc1cc2c(cc1OC)CN(CCn1cc(CNc3ccccc3NC(=O)c3ccncc3)nn1)CC2 | 3.74 | > 100 | – | –
9 | COc1cc2c(cc1OC)CN(CCc1ccc(-n3cc(CNc4ccccc4NC(=O)c4cnc5ccccc5c4)nn3)cc1)CC2 | 3.82 | > 100 | > 100 | –
10 | COc1cc2c(cc1OC)CN(CCc1ccc(-n3cc(CNc4ccccc4NC(=O)c4ccco4)nn3)cc1)CC2 | 11.2 | 58.4 | 25.8 | –
11 | COc1cc2c(cc1OC)CN(CCc1ccc(-n3cc(CNc4ccccc4NC(=O)c4ccncc4)nn3)cc1)CC2 | 1.09 | > 100 | > 100 | –
12 | COc1cc2c(cc1OC)CN(CCc1ccc(-n3cc(CNc4ccccc4NC(=O)c4cc5ccccc5[nH]4)nn3)cc1)CC2 | 6.57 | > 100 | > 100 | –
13 | COc1cccc2c1C(=O)c1c(O)c3c(c(O)c1C2=O)C[C@@](O)(C(=O)CO)C[C@@H]3O[C@H]1C[C@H](N)[C@H](O)[C@H](C)O1 [DOXORUBICIN] | – | 55.5 | – | –
14 | COc1cc2c(cc1OC)CN(CCc1ccc(-n3cc(CNc4ccccc4NC(=O)c4cccs4)nn3)cc1)CC2 | 21.2 | 60.7 | > 100 | –
15 | COc1cc2c(cc1OC)CN(CCc1ccc(-n3cc(CNc4ccccc4NC(=O)c4ccc(C)s4)nn3)cc1)CC2 | 21.8 | > 100 | > 100 | –
16 | COc1cc2c(cc1OC)CN(CCn1cc(CNc3ccccc3NC(=O)c3ccsc3)nn1)CC2 | 2.27 | > 100 | – | –
17 | COc1ccc(CCN(C)CCCC(C#N)(c2ccc(OC)c(OC)c2)C(C)C)cc1OC (stereo unspecified) | – | 59.2 | – | IC50 (K562): 68.3 µM; inhibition (K562/A02 [8]): Active; inhibition (K562/A02 [7]): Dose-dependent effect
18 | COc1cc2c(cc1OC)CN(CCn1cc(CNc3ccccc3NC(=O)c3ccco3)nn1)CC2 | 1.28 | > 100 | – | –
19 | COc1cc2c(cc1OC)CN(CCc1ccc(-n3cc(CNc4ccccc4NC(=O)c4ccc5ccccc5n4)nn3)cc1)CC2 | 13.3 | 58.1 | > 100 | –
20 | COc1cc2c(cc1OC)CN(CCc1ccc(-n3cc(CNc4ccccc4NC(=O)c4ccc(Cl)s4)nn3)cc1)CC2 | 42 | 63.2 | > 100 | Activity (K562/A02 [9]): inactive; Activity (K562/A02 [10]): > 50%; EC50 [11]: 0.0468 µM; Ratio IC50 (K562/A02 [3]): 1.27; Ratio IC50 (K562/A02 [4]): 3.29; Ratio IC50 (K562/A02 [5]): 7.08; Ratio IC50 (K562/A02 [6]): 17.1; inhibition (K562/A02 [8]): Active; inhibition (K562/A02 [7]): Dose-dependent effect; inhibition (K562/A02 [12]): Active; inhibition (K562/A02 [13]): Active; TIME (K562/A02 [14]): > 24 h
21 | COc1cc2c(cc1OC)CN(CCc1ccc(-n3cc(CNc4ccccc4NC(=O)c4ccsc4)nn3)cc1)CC2 | 22.8 | 65.9 | > 100 | –
22 | COc1cc2c(cc1OC)CN(CCc1ccc(-n3cc(CNc4ccccc4NC(=O)c4ccsc4C)nn3)cc1)CC2 | 10.9 | 59.6 | > 100 | –
23 | COc1cc2c(cc1OC)CN(CCn1cc(CNc3ccccc3NC(=O)c3ccccn3)nn1)CC2 | 3.88 | > 100 | – | –
24 | COc1cc2c(cc1OC)CN(CCc1ccc(-n3cc(CNc4ccccc4NC(=O)c4cccnc4Cl)nn3)cc1)CC2 | 2.79 | 47 | 42.7 | –
25 | COc1cc2c(cc1OC)CN(CCn1cc(CNc3ccccc3NC(=O)c3cc4ccccc4[nH]3)nn1)CC2 | 4.16 | > 100 | – | –
